{"source": "patent US11415513B2", "about": "“Method for determining the degree of sensitivity of a strain of fungus to an antifungal agent” (UNIVERSITE GRENOBLE ALPES, priority 2015, dated 2022)", "key": {"[1]": {"system": "strain TOP of C. albicans", "test": "Etest method (MIC)", "assay_type": "cell-based, Candida albicans", "settings": "RPMI medium plates, 24 h at 35° C.", "method": "(§1) The Etest® method is a commercial test for determining the sensitivity of a strain, most frequently used routinely in clinical mycology laboratories.\n(§2) The Etest® tests were performed according to the manufacturer's instructions. After distributing a standardised Mac Farland 0.5 inoculum (equivalent of […]) over plates of RPMI medium, said plates were incubated for 24 h at 35° C., with the exception of C. glabrata in which case the incubation was extended to 48 h so as to be able to determine the minimum inhibitory concentration (MIC).\n(§3) The results of the MICs obtained were interpreted in accordance with the tables of the CLSI (Clinical and Laboratory Standards Institute) and/or of EUCAST (European Committee on Antimicrobial Susceptibility Testing) (Arendrup M C, Cuenca-Estrella M, Lass-Flörl C, Hope W W (2014) Breakpoints for antifungal agents: an update from EUCAST focussing on echinocandins against Candida spp and triazoles against Aspergillus spp. Drug Resist Updat 16(6):81-95. doi:10.1016/j.drup.2014.01.001) (cf. Table 2 taken from Maubon D, Garnaud C, Calandra T, et al. (2014) Resistance of Candida spp. to antifungal drugs in the ICU: where are we now? Intensive Care Med. doi: 10.1007/s00134-014-3404-7) which list the clinical thresholds (CBPs) for the most common species of yeast of the genus Candida as a function of different antifungal agents, or according to the table of epidemiological thresholds (ECVs)."}, "[2]": {"system": "strain SC5314 of C. albicans", "test": "Sensitivity test by HCA microscopy (chitin level, Calcofluor White; cell count)", "assay_type": "cell-based, Candida albicans", "settings": "6.5 h at 30° C., SC medium; for decrease of the number of cells / increase of the chitin level in the wall of the cells: vs cells in the absence of antifungal agent, concentration gradient of Table 1", "method": "(§4) The strains of Candida were incubated beforehand at 30° C. overnight in a yeast extract medium—peptone dextrose (YPD) (1% bacto peptone, 0.5% yeast extract, 2% glucose, 1.5% agar).\nYeast colonies were then removed from YPD medium plates and suspended in a 0.9% NaCl saline solution, in which the cell concentration was estimated by optical microscopy using Kova counting slides.\nA dilution was performed to obtain 15 ml of an inoculum at 3×10^6 CFU/ml, in a synthetic complete (SC) medium at pH 7 (2% glucose, 0.5% ammonium sulfate, 0.17% nitrogen-containing yeast base, 0.2% synthetic complete mixture, and 10% HEPES 1.5M pH 7.2) for C. albicans, C. parapsilosis, C. tropicalis and C. krusei, and in a solution of RPMI 1640 pH 7.3 (10% HEPES 1M pH 7.2) for C. glabrata, so as to reduce the formation of septa and clusters.\n1 ml of inoculum was then added to 2 ml of antifungal solution prepared in an SC or RPMI medium depending on the species of fungus, so as to obtain a final concentration of yeast of 10^6 CFU/ml and the desired concentration of antifungal agent according to table 1.\nAfter homogenisation, the cultures were placed at 30° C. at 200 rpm, with the exception of cultures of C. glabrata, which were placed at 35° C. at 200 rpm, and incubated for a period of 6.5 h or 24 h.\nAfter incubation, 100 μl of the culture of fungi obtained above were transferred in triplicate to 96-well plates, and 2.5 μl of Calcofluor White (CFW) were added to each well so as to mark the chitin of the cell walls of the yeasts.\n(§5) A step of acquiring images by automated fluorescence microscopy (ScanR screening station, Olympus), using a 40× lens and a CFW filter, made it possible to obtain 30 images per well so as to capture enough cells to provide statistically significant data. These images were analysed by software (ScanR analysis software, Olympus). Firstly, the background noise was processed so as to improve the contrast between the fluorescence of the yeasts and background noise. A pixel threshold was then defined. Segmentation of the fluorescent elements present in each of the acquired images was then performed using an algorithm predefined in the software, making it possible to determine the limit of each element on the basis of the fluorescence intensity of said element. A size parameter was then applied to select the yeasts and eliminate the aggregates and the fluorescent debris.\nEach element then corresponding to a yeast, it was thus possible, on the basis of these elements predefined beforehand, to define the fluorescence intensity for each of the yeasts, this intensity being directly correlated with the chitin content of their wall.\nOn the basis of said defined elements, it was also possible to automatically count the yeasts,\nThe strain SC5314 of C. albicans was cultivated as described in paragraph I of the Examples section so as to obtain an inoculum at 3×10^6 CFU/ml in 15 ml of SC medium.\n2 ml of fluconazole solution prepared in the SC medium were then added to 1 ml of this inoculum so as to obtain a final concentration of yeast of 10^6 CFU/ml and of 16 μg/ml in fluconazole.\nThe inoculum was treated in the same way so as to obtain cultures of 10^6 CFU/ml and the following concentrations of fluconazole: 0.015 μg/ml, 0.031 μg/ml, 0.062 μg/ml, 0.125 μg/ml, 0.25 μg/ml, 0.5 μg/ml, 1 μg/ml, 2 μg/ml, 4 μg/ml, 8 μg/ml, 16 μg/ml.\nAfter incubation for 6.5 h at 30° C. with stirring at 200 rpm, 100 μl of each culture were removed and transferred to 96-well plates. This procedure was performed in triplicate, and 2.5 μl of CFW were then added to each well.\nThe chitin level in the cell wall of the yeasts was then measured by […] analysis (HCA) microscopy, as described in paragraph II of the Examples section, in triplicate for each condition of concentration of fluconazole and without fluconazole."}, "[3]": {"system": "strain DSY296 of C. albicans", "test": "Sensitivity test by HCA microscopy (chitin level, Calcofluor White)", "assay_type": "cell-based, Candida albicans", "settings": "vs cells in the absence of antifungal agent; 6.5 h at 30° C., SC medium; concentration gradient of Table 1", "method": "as §4\nYeast colonies were then removed from YPD medium plates and suspended in a 0.9% NaCl saline solution, in which the cell concentration was estimated by optical microscopy using Kova counting slides. […]\nas §5, with “A pixel threshold was then defined.” left out, “A size parameter was then applied to select the yeasts and eliminate the aggregates and the fluorescent debris.” left out\nEach element then corresponding to a yeast, it was thus possible, on the basis of these elements predefined beforehand, to define the fluorescence intensity for each of the yeasts, this intensity being directly correlated with the chitin content of their wall. […]"}, "[4]": {"system": "strain Tg5 of C. glabrata", "test": "Etest method (MIC)", "assay_type": "cell-based, Candida glabrata", "settings": "for MIC: Nakaseomyces glabratus, read-out: MIC (Etest method)", "method": "as §1, §2, §3"}, "[5]": {"system": "strain 8/21 of C. parapsilosis", "test": "Etest method (MIC)", "assay_type": "cell-based, Candida parapsilosis", "settings": "RPMI medium plates, 24 h at 35° C.; for MIC: Lodderomyces parapsilosis", "method": "as §1, §2, §3"}, "[6]": {"settings": "RPMI medium plates, 35° C., incubation extended to 48 h for C. glabrata"}}, "note": "Where two headings read alike, the source gives them in different places. Starred links: 1 amine or outer side, 2 acyl side, 3 side chain; linkers in the order of their positions; H or OH if unused. Positions of bridges follow the written chain, without caps; N, C: chain ends. Non-standard residues stand in square brackets, D forms with d. Residues, ends and D or L forms follow the SMILES beside them. *: point of attachment. hTyr(3S-OH,4S-OH,3'-OSO3H) = N[C@H](C(=O)O)[C@H](O)[C@@H](O)c1ccc(O)c(OS(=O)(=O)O)c1; Orn(4R-OH,5R-OH) = O=C([C@H](C[C@@H](O)[C@@H](O)N[*:3])N[*:1])[*:2]; Pro(3S-OH,4S-Me) = C[C@H]1CN[C@H](C(=O)O)[C@H]1O; X1 = CCCCCOc1ccc(-c2cc(-c3ccc(C(=O)*)cc3)no2)cc1; Gln(3R-OH) = NC(=O)C[C@@H](O)[C@H](N)C(=O)O; Hyp = O=C(O)[C@@H]1C[C@@H](O)CN1"}
{"compound": "CCCCCOc1ccc(-c2cc(-c3ccc(C(=O)N[C@H]4C[C@@H](O)[C@@H](O)NC(=O)[C@@H]5[C@@H](O)[C@@H](C)CN5C(=O)[C@H]([C@H](O)CC(N)=O)NC(=O)[C@H]([C@H](O)[C@@H](O)c5ccc(O)c(OS(=O)(=O)O)c5)NC(=O)[C@@H]5C[C@@H](O)CN5C(=O)[C@H]([C@@H](C)O)NC4=O)cc3)no2)cc1", "note": "[micafungin] (X1-[Orn(4R-OH,5R-OH)]T[Hyp][hTyr(3S-OH,4S-OH,3'-OSO3H)][Gln(3R-OH)][Pro(3S-OH,4S-Me)]; lactam 1-C)", "values": [{"measurement": "MIC", "setting": "[1]; Candida albicans", "result": 1, "unit": "µg/mL"}, {"measurement": "phenotype by Etest MIC, interpretation by the EUCAST and CLSI tables", "setting": "[1]", "result": "resistant"}]}
{"compound": "OC(Cn1cncn1)(Cn1cncn1)c1ccc(F)cc1F", "note": "[fluconazole]", "values": [{"measurement": "phenotype of the strain with respect to the antifungal agent (HCA)", "setting": "[2]", "result": "sensitive (an increase in the chitin level greater than or equal to 20% is observed compared to the chitin level of a population of cells of said fungus in the absence of antifungal agent, as well as a decrease in the number of cells of at least 0.3 log)"}, {"measurement": "decrease of the number of cells", "setting": "[2]", "result": "at least 0.3 log"}, {"measurement": "increase of the chitin level in the wall of the cells", "setting": "[2]", "result": "greater than or equal to 20%"}, {"measurement": "decrease in the chitin level in the wall of the cells", "setting": "[3]", "result": "less than 20%"}, {"measurement": "MIC", "setting": "[4]; [6]", "result": "> 256", "unit": "µg/mL"}, {"measurement": "phenotype by Etest MIC, interpretation by the EUCAST and/or CLSI tables", "setting": "[4]; [6]", "result": "resistant"}, {"measurement": "MIC", "setting": "[5]", "result": 8, "unit": "µg/mL"}, {"measurement": "phenotype by Etest MIC, interpretation by the EUCAST and CLSI tables", "setting": "[5]", "result": "resistant"}]}
{"compound": "C[C@@H](c1ncncc1F)[C@](O)(Cn1cncn1)c1ccc(F)cc1F", "note": "[voriconazole]", "values": [{"measurement": "phenotype of the strain with respect to the antifungal agent (HCA)", "setting": "[2]", "result": "sensitive (an increase in the chitin level greater than or equal to 20% is observed compared to the chitin level of a population of cells of said fungus in the absence of antifungal agent, as well as a decrease in the number of cells of at least 0.3 log)"}, {"measurement": "decrease of the number of cells", "setting": "[2]", "result": "at least 0.3 log"}, {"measurement": "increase of the chitin level in the wall of the cells", "setting": "[2]", "result": "greater than or equal to 20%"}, {"measurement": "decrease in the chitin level in the wall of the cells", "setting": "[3]", "result": "less than 20%"}, {"measurement": "MIC", "setting": "[4]; 48 h", "result": 8, "unit": "µg/mL"}, {"measurement": "phenotype by Etest MIC, interpretation by the EUCAST and/or CLSI tables", "setting": "[4]; [6]", "result": "resistant"}, {"measurement": "MIC", "setting": "[5]", "result": 4, "unit": "µg/mL"}, {"measurement": "phenotype by Etest MIC, interpretation by the EUCAST and CLSI tables", "setting": "[5]", "result": "resistant"}]}
